According to paper PMC2677626, “How β-Lactam Antibiotics Enter Bacteria: A Dialogue with the Porins” (PLoS ONE, 2009):

Biological target: T1, OmpC (Escherichia coli, UniProt P06996)
T1 construct: OmpC porin in planar lipid bilayer
Test: single-channel ion current blockage in planar lipid bilayer
Format: binding
Conditions: data not shown in paper; same pattern as Omp36

T1 sequence (P06996 22-367): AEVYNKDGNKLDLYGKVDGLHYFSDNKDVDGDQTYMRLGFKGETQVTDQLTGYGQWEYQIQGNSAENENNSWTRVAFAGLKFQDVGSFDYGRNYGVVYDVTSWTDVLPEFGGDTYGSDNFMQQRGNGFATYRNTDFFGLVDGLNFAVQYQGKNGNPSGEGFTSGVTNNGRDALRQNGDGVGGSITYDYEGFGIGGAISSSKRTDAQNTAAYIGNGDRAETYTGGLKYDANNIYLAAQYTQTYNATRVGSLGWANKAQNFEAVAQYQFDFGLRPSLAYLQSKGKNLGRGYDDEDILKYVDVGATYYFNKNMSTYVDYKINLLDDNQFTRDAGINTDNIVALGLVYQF

Row | SMILES | single-channel ion current blockage in planar lipid bilayer
1 | CO/N=C(\C(=O)N[C@@H]1C(=O)N2C(C(=O)[O-])=C(C[N+]3(C)CCCC3)CS[C@H]12)c1csc(N)n1 [cefepime] | showed the same pattern of interaction with ertapenem, cefepime, ceftazidime and ampicillin (data not shown)
2 | C[C@@H](O)[C@H]1C(=O)N2C(C(=O)O)=C(S[C@@H]3CN[C@H](C(=O)Nc4cccc(C(=O)O)c4)C3)[C@H](C)[C@H]12 [ertapenem] | showed the same pattern of interaction with ertapenem, cefepime, ceftazidime and ampicillin (data not shown)
